Assay results taken from paper PMC7224190, “Pharmacological inhibition of PRMT7 links arginine monomethylation to the cellular stress response” (Nature Communications, 2020).

Key:
SETD8 = target: T1, SETD8 (Homo sapiens, UniProt Q9NQR1); assay: biochemical; set-up: radiometric methyltransferase selectivity assay with tritiated SAM, per cent activity; conditions: read-out: % of control remaining
T1 construct: gene KMT5A
T1 sequence (Q9NQR1 1-393): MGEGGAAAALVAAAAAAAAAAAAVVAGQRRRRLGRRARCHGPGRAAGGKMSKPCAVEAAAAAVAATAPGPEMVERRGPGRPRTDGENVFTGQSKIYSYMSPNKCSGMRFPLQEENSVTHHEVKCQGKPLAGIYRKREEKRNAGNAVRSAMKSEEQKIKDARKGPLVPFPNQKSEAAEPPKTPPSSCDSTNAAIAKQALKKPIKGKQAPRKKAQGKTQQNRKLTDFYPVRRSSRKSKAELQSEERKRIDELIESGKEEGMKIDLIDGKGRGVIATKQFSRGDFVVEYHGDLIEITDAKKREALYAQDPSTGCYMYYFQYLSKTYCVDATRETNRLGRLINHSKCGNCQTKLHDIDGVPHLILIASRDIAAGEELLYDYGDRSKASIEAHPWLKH
Method in brief: (§1)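 Radiometric methyltransferase assays with ³H-SAM and substrate near apparent Km, compound tested at 1 and 10 μM. Methyl incorporation into biotinylated substrate read by scintillation proximity after guanidine quench; no-compound = 100%, no-enzyme = 0% activity.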

DNMT3B/3L = DNMT3B/3L (Homo sapiens, UniProt Q9UBC3); assay: biochemical; set-up: radiometric methyltransferase selectivity assay with tritiated SAM, per cent activity; conditions: read-out: % of control remaining
DNMT3A/3L = DNMT3A/3L (Homo sapiens, UniProt Q9Y6K1); assay: biochemical; set-up: radiometric methyltransferase selectivity assay with tritiated SAM, per cent activity; conditions: read-out: % of control remaining
BCDIN3D = target: T2, BCDIN3D (Homo sapiens, UniProt Q7Z5W3); assay: biochemical; set-up: radiometric methyltransferase selectivity assay with tritiated SAM, per cent activity; conditions: read-out: % of control remaining
T2 sequence (Q7Z5W3 1-292): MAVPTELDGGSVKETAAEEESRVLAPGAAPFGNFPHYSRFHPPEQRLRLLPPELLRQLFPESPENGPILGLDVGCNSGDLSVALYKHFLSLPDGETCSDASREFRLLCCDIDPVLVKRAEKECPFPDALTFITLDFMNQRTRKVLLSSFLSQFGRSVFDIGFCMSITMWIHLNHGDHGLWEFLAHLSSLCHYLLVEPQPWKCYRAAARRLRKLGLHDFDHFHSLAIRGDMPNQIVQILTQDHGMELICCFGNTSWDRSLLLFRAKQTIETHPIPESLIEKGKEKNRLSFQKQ
Method in brief: as §1

PRC2-EZH2 = PRC2-EZH2 (Homo sapiens, UniProt Q15910); assay: biochemical; set-up: radiometric methyltransferase selectivity assay with tritiated SAM, per cent activity; conditions: read-out: % of control remaining
PRMT7 = target: T3, PRMT7 (Homo sapiens, UniProt Q9NVM4); assay: radiometric SPA methyltransferase assay, 3H-SAM and H2B ([…]); format: biochemical
T3 sequence (Q9NVM4 1-692): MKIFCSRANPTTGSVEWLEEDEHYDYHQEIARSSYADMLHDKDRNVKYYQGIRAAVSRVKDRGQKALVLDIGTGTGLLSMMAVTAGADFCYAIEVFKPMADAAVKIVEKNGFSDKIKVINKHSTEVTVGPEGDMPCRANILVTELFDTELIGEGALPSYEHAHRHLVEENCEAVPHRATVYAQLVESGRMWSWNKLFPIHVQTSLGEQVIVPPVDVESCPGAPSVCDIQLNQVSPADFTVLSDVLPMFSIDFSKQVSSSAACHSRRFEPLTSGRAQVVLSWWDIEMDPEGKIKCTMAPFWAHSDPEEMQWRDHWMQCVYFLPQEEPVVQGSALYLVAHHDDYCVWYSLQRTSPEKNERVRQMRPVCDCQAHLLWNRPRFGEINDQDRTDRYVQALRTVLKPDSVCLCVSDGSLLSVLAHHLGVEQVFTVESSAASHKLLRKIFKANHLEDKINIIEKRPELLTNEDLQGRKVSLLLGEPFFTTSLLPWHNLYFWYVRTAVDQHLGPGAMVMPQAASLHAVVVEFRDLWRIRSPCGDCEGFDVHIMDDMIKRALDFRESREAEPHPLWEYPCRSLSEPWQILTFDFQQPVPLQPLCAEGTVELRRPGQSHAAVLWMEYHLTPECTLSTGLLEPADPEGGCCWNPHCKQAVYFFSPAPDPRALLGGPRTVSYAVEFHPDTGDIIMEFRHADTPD

Sequence of PRC2-EZH2 (Q15910 whole entry): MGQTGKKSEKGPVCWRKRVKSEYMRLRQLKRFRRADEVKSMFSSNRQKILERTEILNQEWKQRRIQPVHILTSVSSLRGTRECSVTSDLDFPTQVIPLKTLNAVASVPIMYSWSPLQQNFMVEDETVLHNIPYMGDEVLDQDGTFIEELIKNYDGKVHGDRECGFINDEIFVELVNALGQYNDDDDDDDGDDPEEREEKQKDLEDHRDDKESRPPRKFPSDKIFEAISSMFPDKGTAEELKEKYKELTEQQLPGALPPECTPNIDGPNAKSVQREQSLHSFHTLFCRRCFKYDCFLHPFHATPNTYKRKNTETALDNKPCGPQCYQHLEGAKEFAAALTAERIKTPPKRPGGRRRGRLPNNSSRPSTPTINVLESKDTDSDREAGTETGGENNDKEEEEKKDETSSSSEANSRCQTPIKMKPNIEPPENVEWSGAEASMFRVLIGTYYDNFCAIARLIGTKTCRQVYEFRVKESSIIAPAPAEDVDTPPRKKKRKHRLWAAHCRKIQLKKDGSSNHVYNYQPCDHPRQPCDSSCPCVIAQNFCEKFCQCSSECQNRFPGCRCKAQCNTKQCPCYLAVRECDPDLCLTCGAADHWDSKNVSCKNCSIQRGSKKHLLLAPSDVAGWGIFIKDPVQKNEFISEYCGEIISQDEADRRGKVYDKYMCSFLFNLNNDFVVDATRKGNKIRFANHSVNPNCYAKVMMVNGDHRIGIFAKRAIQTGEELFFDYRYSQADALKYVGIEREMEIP
Sequence of PRC2-EZH2 (O75530 whole entry partner): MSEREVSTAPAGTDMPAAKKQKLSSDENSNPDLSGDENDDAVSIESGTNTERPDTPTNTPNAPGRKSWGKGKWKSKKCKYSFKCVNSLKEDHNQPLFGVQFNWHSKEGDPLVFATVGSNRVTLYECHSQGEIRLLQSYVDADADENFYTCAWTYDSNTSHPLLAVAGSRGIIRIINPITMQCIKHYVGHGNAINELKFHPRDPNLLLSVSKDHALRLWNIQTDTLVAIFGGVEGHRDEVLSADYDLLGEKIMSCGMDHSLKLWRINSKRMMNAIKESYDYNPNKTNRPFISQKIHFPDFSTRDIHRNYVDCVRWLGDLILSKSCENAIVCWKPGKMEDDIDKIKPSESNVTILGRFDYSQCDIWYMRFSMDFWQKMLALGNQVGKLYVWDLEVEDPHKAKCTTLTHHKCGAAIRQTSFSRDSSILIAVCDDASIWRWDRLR
Sequence of PRC2-EZH2 (Q15022 whole entry partner): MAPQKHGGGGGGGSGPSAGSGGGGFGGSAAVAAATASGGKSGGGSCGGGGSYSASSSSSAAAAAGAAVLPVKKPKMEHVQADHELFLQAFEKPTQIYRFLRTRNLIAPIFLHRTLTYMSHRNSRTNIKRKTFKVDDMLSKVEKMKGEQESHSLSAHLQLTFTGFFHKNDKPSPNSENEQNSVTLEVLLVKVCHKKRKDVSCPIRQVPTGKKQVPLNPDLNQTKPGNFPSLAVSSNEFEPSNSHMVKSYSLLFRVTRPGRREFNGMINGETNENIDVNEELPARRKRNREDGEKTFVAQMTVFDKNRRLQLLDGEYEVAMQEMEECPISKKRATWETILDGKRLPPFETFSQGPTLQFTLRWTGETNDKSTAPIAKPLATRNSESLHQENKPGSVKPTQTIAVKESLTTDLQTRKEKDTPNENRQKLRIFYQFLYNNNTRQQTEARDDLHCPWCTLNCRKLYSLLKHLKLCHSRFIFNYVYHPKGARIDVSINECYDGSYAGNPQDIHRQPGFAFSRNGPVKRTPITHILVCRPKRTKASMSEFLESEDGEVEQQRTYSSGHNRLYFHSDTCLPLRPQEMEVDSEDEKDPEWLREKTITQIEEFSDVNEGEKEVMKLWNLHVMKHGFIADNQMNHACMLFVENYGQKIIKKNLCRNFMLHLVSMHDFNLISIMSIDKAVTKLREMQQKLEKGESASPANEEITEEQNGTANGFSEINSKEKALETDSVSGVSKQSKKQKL

| Compound | remaining activity at 1 µM (SETD8) [%] | remaining activity at 10 µM (SETD8) [%] | remaining activity at 1 µM (DNMT3B/3L) [%] | remaining activity at 10 µM (DNMT3B/3L) [%] | remaining activity at 1 µM (DNMT3A/3L) [%] | remaining activity at 10 µM (DNMT3A/3L) [%] | remaining activity at 1 µM (BCDIN3D) [%] | remaining activity at 10 µM (BCDIN3D) [%] | remaining activity at 1 µM (PRC2-EZH2) [%] | remaining activity at 10 µM (PRC2-EZH2) [%] | IC50 (PRMT7) [nM] |
| --- | --- | --- | --- | --- | --- | --- | --- | --- | --- | --- | --- |
| CC1(C)O[C@@H]2[C@H](O1)[C@@H](CSCCCCNCc1cccc(-c3ccc(Cl)cc3)c1)O[C@H]2n1cnc2c(N)ncnc21 [SGC8158N] | 99 | 100 | 104 | 103 | 100 | 99 | 96 | 94 | 93 | 88 |  |
| Nc1ncnc2c1ncn2[C@@H]1O[C@H](CSCCCNCc2cccc(-c3ccc(Cl)cc3)c2)[C@@H](O)[C@H]1O [SGC8172] |  |  |  |  |  |  |  |  |  |  | < 2.5 |
| Nc1ncnc2c1ncn2[C@@H]1O[C@H](CSCCCCNCc2cccc(-c3ccc(Cl)cc3)c2)[C@@H](O)[C@H]1O [SGC8158] | 101 | 102 | 100 | 101 | 100 | 99 | 55 | 11 | 105 | 94 |  |
